{"source": "patent US6331565A", "about": "“Dicaffeoylquinic acid for treating hepatitis B and the diseases associated with retrovirus, and the new caffeoylquinic acid derivatives” (Institute of Radiation Medicine Academy of Military Medical …, priority 1996, dated 2001)", "key": {"2.2.15 cells": {"system": "2.2.15 cells", "assay": "Cytotoxicity in 2.2.15 cells (MTT)", "assay_type": "cell-based", "method": "The cultures were passenged by trypsinization every 4 days.\n(§1) The viability of cells was determined by MTT."}, "HIV-1 RT": {"system": "HIV-1 RT", "method": "MT4 cells in culture were counted by trypan blue exclusion method. The MT4 cells suspended in a small volume of RPMI-1640 medium without FCS and infected with HIV-1 at 200 TCID50 viruses per 10^6 cells. The mixture of MT4 cells and virus was subsequently incubated at 37° C. in a humidified atmosphere of 5% CO2 for 1 hr to allow virus to adsorbed to cells. Unabsorbed viruses were then removed by washing one with […] of the fresh medium and centrifuged at 1000 rpm for ten minutes. The cells were suspended in the medium and distributed into 12-well microculture plates (10^6 cells/3 ml/well). […] After 4-day incubation at 37° C. in a humidified atmosphere containing 5% CO2 the medium was aspirated and the fresh medium containing the same concentration of drug was added.\nThe presence of HIV-1 RT in the supernatants of infected, drug-treated and infected, no drug treated MT4 cell culture was assayed. Cell culture fluids was clarified at 1000 rpm for 10 minutes to remove cellular debris. The supernatant samples (20 μl) in duplicate transferred to 5 ml plastic Falcon tubes, 10 μl of virus solubilization buffer [0.5% Triton X-100 in 0.8 M NaCl, 0.5 mM phenylmethysulfonyfluoride, 20% (v/v) glycerol and 50 mM Tris-HCl, pH 7.8] were then added to solubilize the viral particles in the supernatant samples and to release RT located in the viral core. 170 μl of reaction mixture (cocktail I) [52 mM Tris-HCl (pH 7.8), 10 mM MgCl2, 2 mM dithiothreitol, 5 μg of poly(rA)-oligo(dT)per ml. 83 μg of dATP per ml, and 3 μCi of [^3 H]TTP per ml] was then added and incubated at 37° C. for 2 hr. The incorporation of [^3 H]TTP into DNA with poly(rA)-olgio(dT) template primer by viral RT was assessed by trichloroacetic (TCA) precipitation and filtered over a […] diameter glass fiber filter. […] of cold 10% TCA was added to precipitate DNA. The precipitate DNA was then collected on the filters in a Millipore sampling manifold, and was washed with additional 5 volumes of 5% TCA and 2 volumes of 70% ethanol. Radioactivity of the DNA on the filters was determined by a scintillation counter."}, "MT4 cells": {"system": "MT4 cells", "assay": "Cytotoxicity in uninfected MT4 cells (MTT)", "assay_type": "cell-based, human", "conditions": "1000 μg.ml^-1, MTT", "method": "A human T-cell leukemia cell line. MT4 cells, was used in this study. It was maintained in RPMI-1640 medium supplemented with 10% FCS. 100 U/ml of penicillin, and 100 μg/ml of streptomycin at 37° C. in a humidified atmosphere of 5% CO2. Cell cultures were split into fresh medium every 4 days.\nAfter 4 h, 100 μl of solvent (10% Triton X-100 and 0.4% HCl isopropanol)was added to cultures to solubilizes formazan. After an overnight incubation, the absorbency of each well was measured using a microplate reader (Bio-Rad, model 450) at 560 nm."}, "[1]": {"assay": "Tolerance and general health in ducks", "conditions": "duck, in vivo; preliminary results; read-out: maximal tolerance dose in duck"}, "HBV DNA replication": {"system": "HBV DNA replication", "conditions": "FIG. 1; 15.625-250 ug/ml", "description": "Hep G2 2.2.15 cell lines were maintained in DMEM supplemented with 10% fetal calf serum (FCS) and 100 units.ml^-1 of penicillin and streptomycin, 380 μg.ml^-1 of G418 in a humidified atmosphere containing 5% CO2 at 37° C. The cultures were passenged by trypsinization every 4 days. For bioassays cells were plated in 24-well plates at a density of 1.0×10^5 cells/well. Two-day-old cultures were treated with various concentrations of drug in DMEM containing 10 FCS. The drug was left in the medium for 4 days, and then the medium was aspirated and the fresh medium containing the same concentration of drug was added. At the end of three 4-day periods, the cells were harvested. The aliquot of the culture medium was used for the estimation of the HBV surface antigen (HBsAg) and HBV e antigen (HBeAg).\nDNA extraction in 2.2.15 cells: Total DNA was isolated from 2.2.15 cells, cells was washed in PBS and lysed in a solution containing 50 mmol.l^-1 Tris-HCl (pH 7.5). 10 mmol.l^-1 EDTA. 1% SDS and 50 μg.ml^-1 of proteinase K (Sigma). After incubation at 37° C. for 4 h, total DNA was extracted in phenol-chloroform-isoamyl alcohol (25:24:1) followed by two extractions with chloroform-isoamyl alcohol. The DNA was precipitated with 1/10 vol NaOAc and 2.5 vol ethanol overnight at -70° C. […]"}, "Hep G2 cell lines": {"system": "Hep G2 cell lines", "assay": "Cytotoxicity in Hep G2 cell lines", "assay_type": "cell-based", "conditions": "1.0 μg.ml^-1", "method": "as §1"}, "HBV DNA polymerase": {"target": "T1, HBV DNA polymerase (Hepatitis B virus genotype D subtype ayw, UniProt P03156)", "T1 construct": "HBV DNA polymerase in viral particles; host or cells: viral particles", "T1 sequence (P03156 whole entry)": "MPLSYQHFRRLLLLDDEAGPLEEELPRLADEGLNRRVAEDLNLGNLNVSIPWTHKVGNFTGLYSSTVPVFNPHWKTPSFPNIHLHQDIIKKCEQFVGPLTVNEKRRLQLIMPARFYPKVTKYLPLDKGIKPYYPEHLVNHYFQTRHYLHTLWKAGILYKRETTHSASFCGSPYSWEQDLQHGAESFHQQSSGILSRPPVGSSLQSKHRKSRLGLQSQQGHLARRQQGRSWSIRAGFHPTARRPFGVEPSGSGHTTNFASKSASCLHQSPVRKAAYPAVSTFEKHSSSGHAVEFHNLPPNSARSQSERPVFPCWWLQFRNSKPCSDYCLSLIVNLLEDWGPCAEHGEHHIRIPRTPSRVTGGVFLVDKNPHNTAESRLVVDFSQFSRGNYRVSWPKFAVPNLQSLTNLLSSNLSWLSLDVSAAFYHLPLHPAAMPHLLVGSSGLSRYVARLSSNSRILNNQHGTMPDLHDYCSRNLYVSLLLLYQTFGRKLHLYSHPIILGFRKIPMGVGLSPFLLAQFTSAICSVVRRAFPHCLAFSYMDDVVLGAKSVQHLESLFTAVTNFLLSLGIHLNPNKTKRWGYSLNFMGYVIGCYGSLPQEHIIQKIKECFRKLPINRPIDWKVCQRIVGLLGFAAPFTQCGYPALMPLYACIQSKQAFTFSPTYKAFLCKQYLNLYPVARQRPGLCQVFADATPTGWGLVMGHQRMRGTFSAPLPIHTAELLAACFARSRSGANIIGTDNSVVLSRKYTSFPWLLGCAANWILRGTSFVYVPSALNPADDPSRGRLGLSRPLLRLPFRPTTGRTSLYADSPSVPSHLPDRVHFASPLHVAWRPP", "assay": "HBV DNA polymerase assay", "assay_type": "biochemical", "method": "Assay was performed as described by Hantz (Antiviral Res 4(1984) 187-199) with minor modification. The Reaction mixture consisted of HBV DNA polymerase in viral particles in 200 mmol.l^-1 of Tris-HCl pH 7.6, 200 mmol.l^-1 of NH4 Cl. 50 mmol.l^-1 of MgCl2, 10 mmol.l^-1 of 2-mercaptoethanol, 2% Nonidet P-40 and 300 μmol.l^-1 concentrations of deoxynucleotide triphosphates except for [^3 H]dTTP, which was included in the assay at 20 μci.ml^-1. […] The mixtures were incubated at 37° C. for 4 h prior to spotting on Whatman No.3 filter paper which was washed 4 times with cold 5% trichloroacitic acid, then with ethanol. The HBV DNA polymerase activity as measure of the incorperation of the radionucleotide into the viral DNA was counted in a Recbeta (LKB)scintilation counter."}, "[2]": {"system": "lymphocyte proliferation induced by Con A", "conditions": "mice infected with MuLV", "method": "mice. Five-wk-old female C57BL/6 mice were used throughout the experiments. All mice were housed in sterile cages in a room supplied with filtrated air. They were given pelleted food and chlorinated water ad libitum.\nInfection with LP-BM5 MuLV. Cell-free supernatants of LP-BM5 MULV were prepared by cocultivating G6 SC-1 clones with normal SC-1 cells for 5 days. Mice were inoculated intraperitoneally with 150 μl of stock solution containing 10^3,4×C plaque-forming units and 10^2,3 Mink-cell focks-forming units per […].\nThen, the spleens were collected. Cell suspensions were prepared by repeated passage of whole spleen through a pipette, the capsule and debris were allowed to settle, and the supernatants containing cells were collected and washed twice in PBS. […] Incubation continued for 16 hr, then cells were collected on filter that was determined by a scintillation counter."}}, "note": "“Also recorded” adds a separate entry of the source. Like-named read-outs stand apart in the source and are kept apart here."}
{"smiles": "O=C(/C=C/c1ccc(O)c(O)c1)OC1CC(OC(=O)/C=C/c2ccc(O)c(O)c2)(C(=O)O)CC(O)C1O", "note": "(centres unmarked) [Compound A, 1,5-di-O-caffeoylquinic acid]", "values": [{"measurement": "toxicity to 2.2.15 cells", "setting": "2.2.15 cells; 1.0 μg.ml^-1", "result": "did not show toxicity"}, {"measurement": "harmful effects on 2.2.15 cells", "setting": "2.2.15 cells; 500 μg/ml", "result": "no obvious harmful effects"}, {"measurement": "IC50, RT in MT4 cells infected with HIV", "setting": "HIV-1 RT", "result": 17.1, "unit": "µg/mL"}, {"measurement": "Inhibitory rate(%)", "setting": "HIV-1 RT; 1 μg/ml", "result": "22.8 ± 1.9", "unit": "%"}, {"measurement": "cpm", "setting": "HIV-1 RT; 1 μg/ml", "result": "6051 ± 91", "unit": "cpm"}, {"measurement": "Inhibitory rate(%)", "setting": "HIV-1 RT; 10 μg/ml", "result": "45.4 ± 0.8", "unit": "%"}, {"measurement": "cpm", "setting": "HIV-1 RT; 10 μg/ml", "result": "4283 ± 89", "unit": "cpm"}, {"measurement": "Inhibitory rate(%)", "setting": "HIV-1 RT; 100 μg/ml", "result": "68.7 ± 0.5", "unit": "%"}, {"measurement": "cpm", "setting": "HIV-1 RT; 100 μg/ml", "result": "2456 ± 54", "unit": "cpm"}, {"measurement": "Inhibitory rate(%)", "setting": "HIV-1 RT; 1000 μg/ml", "result": "80.5 ± 1.5", "unit": "%"}, {"measurement": "cpm", "setting": "HIV-1 RT; 1000 μg/ml", "result": "1528 ± 89", "unit": "cpm"}, {"measurement": "cytotoxicity to MT4 cells", "setting": "MT4 cells", "result": "markedly cytotoxic"}, {"measurement": "MTD", "setting": "[1]", "result": "> 4000", "unit": "mg/kg"}, {"measurement": "inhibition of HBV DNA replication", "setting": "HBV DNA replication", "result": "inhibit HBV DNA replication in a dose dependent manner"}, {"measurement": "toxicity to Hep G2 cell lines", "setting": "Hep G2 cell lines", "result": "did not show toxicity"}, {"measurement": "IC50", "setting": "HBV DNA polymerase", "result": 59.3, "unit": "µM"}, {"measurement": "inhibitory effect on HBV DNAp", "setting": "HBV DNA polymerase", "result": "significant dose-dependent inhibitory effect"}, {"measurement": "cpm", "setting": "HBV DNA polymerase; 1 μg/ml", "result": "9856 ± 201", "unit": "cpm"}, {"measurement": "cpm", "setting": "HBV DNA polymerase; 10 μg/ml", "result": "7990 ± 79", "unit": "cpm"}, {"measurement": "cpm", "setting": "HBV DNA polymerase; 100 μg/ml", "result": "3522 ± 51", "unit": "cpm"}, {"measurement": "cpm", "setting": "HBV DNA polymerase; 1000 μg/ml", "result": "1983 ± 159", "unit": "cpm"}, {"measurement": "inhibition at 1 µg/mL", "setting": "HBV DNA polymerase; read-out: Inhibitory rate (%)", "result": "11.2 ± 1.9", "unit": "%"}, {"measurement": "inhibition at 10 µg/mL", "setting": "HBV DNA polymerase; read-out: Inhibitory rate (%)", "result": "30.3 ± 0.8", "unit": "%"}, {"measurement": "inhibition at 100 µg/mL", "setting": "HBV DNA polymerase; read-out: Inhibitory rate (%)", "result": "68.4 ± 0.5", "unit": "%"}, {"measurement": "inhibition at 1000 µg/mL", "setting": "HBV DNA polymerase; read-out: Inhibitory rate (%)", "result": "82.3 ± 1.5", "unit": "%"}, {"measurement": "proliferation of lymphocyte induced by Con A", "setting": "[2]", "result": "enhance the proliferation of lymphocyte induced by Con A in a degree near to that of AZT; also recorded: enhance the proliferation of lymphocyte of mice infected with MuLV"}]}
